This note sets out measurements from ChEMBL document CHEMBL1201862, “PubChem BioAssay data set” (2004).

Some test systems named below: NCI/ADR-RES; HOP-62; HCC 2998; NCI-H460; NCI-H522; A498; RPMI-8226; NCI-H226; XF498; OVCAR-4; UACC-257; ACHN; SR; TK-10; 786-0; MDA-MB-435; MDA-MB-231; MDA-N; BT-549; MCF7.
Test in all cases: inhibition of tumour cell growth, NCI panel, 48 h

Each structure is given as a SMILES string.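 Grown in 96-well plates, cells were treated for 48 hours with each compound at five concentrations. Insufficient inhibition: endpoint recorded as highest concentration tested. GI50 = concentration required for 50% inhibition of growth.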 Active and inactive are the calls of the source. Cut-off read from the data, not from the text of the source: active = GI50 up to about 1.1 µM and inactive = higher.

For `CCCCCCCCCCCCCCCCOCC(COP(=O)([O-])OCC[N+](C)(C)C)OCCCCCCCCCCCCCCCC` (centres undefined), the GI50 in the assay on NCI/ADR-RES is > 92.9 µM (inactive); in the assay with HOP-62, > 100 µM (inactive); with HCC 2998, > 100 µM (inactive); in the assay on NCI-H460, > 100 µM (inactive); in the assay on NCI-H522 it was > 100 µM (inactive); in the assay with A498 it was > 100 µM (inactive). In addition, the GI50 in the assay on RPMI-8226, in the assay with NCI-H226, in the assay with XF498, in the assay on OVCAR-4 and in the assay with UACC-257 was > 100 µM (inactive) each time.
With `CC(=O)Nc1ccc(C2=N/C(=C\c3ccc(Cl)c(Cl)c3)C(=O)O2)cc1`, the GI50 in the assay with ACHN is > 100 µM (inactive); with SR, 68.9 µM (inactive); in the assay on HOP-62, > 100 µM (inactive); in the assay on HCC 2998, > 100 µM (inactive); in the assay with TK-10, > 100 µM (inactive); in the assay on NCI-H460 it was > 100 µM (inactive). Also, the GI50 was > 100 µM (inactive) in the assay with NCI-H522; > 100 µM (inactive) in the assay on A498; > 100 µM (inactive) in the assay on RPMI-8226; > 100 µM (inactive) with NCI-H226; 57.5 µM (inactive) with XF498; > 100 µM (inactive) in the assay with OVCAR-4. For the same compound, the GI50 with UACC-257 was > 100 µM (inactive).
Turning to `CC(C)C1CN(C(=O)OCc2ccccc2)C2N1C(=O)C2(C)OCc1ccccc1` (centres undefined), the GI50 in the assay on ACHN is 33 µM (inactive); with SR, 29.2 µM (inactive); with HOP-62 it was 94.4 µM (inactive); in the assay on HCC 2998 it was 36.4 µM (inactive); in the assay with TK-10, 42.9 µM (inactive); in the assay with NCI-H460, 21.6 µM (inactive). Besides, the GI50 in the assay on 786-0 was 49.3 µM (inactive); in the assay on A498 it was 26.8 µM (inactive); in the assay with RPMI-8226, 21.4 µM (inactive); in the assay with NCI-H226, 22 µM (inactive); with XF498, 11.7 µM (inactive); in the assay on OVCAR-4, 41.9 µM (inactive). The GI50 with UACC-257 was 28.2 µM (inactive).
With `COc1cc2c(c(OC)c1OC)-c1[nH]ncc1CC2`, the GI50 in the assay with ACHN, in the assay with SR, with HOP-62, in the assay on HCC 2998, in the assay with TK-10 and in the assay on NCI-H460 was > 100 µM (inactive) each time. Moreover, the GI50 in the assay on 786-0, with A498, in the assay on NCI-H226, in the assay on XF498 and in the assay on UACC-257 was > 100 µM (inactive) in each case.
As to `COc1cc(/C=C2\C(=O)N(C(=O)Cc3ccccc3)N=C2C)cc(OC)c1OC`, the GI50 with ACHN, in the assay with SR, in the assay on HOP-62, in the assay on HCC 2998, with TK-10 and in the assay on NCI-H460 was > 100 µM (inactive) each time. The GI50 with 786-0, with NCI-H522, with RPMI-8226, with NCI-H226, with XF498 and with OVCAR-4 was > 100 µM (inactive) each time. Further, the GI50 with UACC-257 was > 100 µM (inactive).
On to `O=C(CCC(=O)Nc1ccc(Cl)c(Cl)c1)CC(=O)c1ccc(Br)cc1`, for which the GI50 in the assay on ACHN is 71.8 µM (inactive); in the assay on TK-10, > 100 µM (inactive); with 786-0 it was > 100 µM (inactive); in the assay on NCI-H522, > 100 µM (inactive); in the assay on A498, > 100 µM (inactive); with RPMI-8226, > 100 µM (inactive). Also, the GI50 in the assay on NCI-H226 is > 100 µM (inactive); in the assay on XF498, > 100 µM (inactive); in the assay on OVCAR-4 it was > 100 µM (inactive); with UACC-257, 49.4 µM (inactive).
For the compound `C=C1C(=O)OC2/C=C(\C)CC/C=C(/C)CC(OC(=O)/C(=C/CO)CO)C12` (centres undefined), the GI50 in the assay with NCI/ADR-RES is 32.6 µM (inactive); in the assay on ACHN, 17.8 µM (inactive); in the assay on MDA-MB-435, 27.8 µM (inactive); in the assay with SR, 28.6 µM (inactive); in the assay on MDA-MB-231 it was > 10 µM (inactive); in the assay with MDA-N, 20.5 µM (inactive). Besides, the GI50 was > 100 µM (inactive) in the assay with HOP-62; 23 µM (inactive) in the assay with HCC 2998; 14.3 µM (inactive) in the assay on BT-549; 15.7 µM (inactive) with TK-10; 64.3 µM (inactive) with NCI-H460; 23.6 µM (inactive) with 786-0. Besides, the GI50 was 17.1 µM (inactive) in the assay with NCI-H522; 19.6 µM (inactive) in the assay with MCF7; > 10 µM (inactive) with A498; 23.2 µM (inactive) with RPMI-8226; 33.6 µM (inactive) in the assay with OVCAR-4; 16.4 µM (inactive) in the assay with UACC-257.
As for `O=C1CC2(CCC(O)(c3ccco3)C(C(=O)c3ccco3)C2)C(=O)c2ccccc2N1` (centres undefined), the GI50 was 64.6 µM (inactive) in the assay on NCI/ADR-RES; > 100 µM (inactive) in the assay with MDA-MB-435; > 100 µM (inactive) in the assay on SR; > 100 µM (inactive) in the assay with MDA-MB-231; > 100 µM (inactive) in the assay with MDA-N; > 100 µM (inactive) in the assay on HOP-62. For the same compound, the GI50 is 55.8 µM (inactive) in the assay on HCC 2998; 92 µM (inactive) with BT-549; > 100 µM (inactive) in the assay on TK-10; 29.5 µM (inactive) in the assay on NCI-H460; > 100 µM (inactive) in the assay with MCF7; > 100 µM (inactive) in the assay with A498. In addition, the GI50 was > 100 µM (inactive) in the assay with NCI-H226, 17.3 µM (inactive) in the assay with OVCAR-4 and > 100 µM (inactive) in the assay with UACC-257.
With `O=C1N[C@@H]([C@H](CCCCCO)OC(=O)c2ccccc2)CO1`, the GI50 with NCI/ADR-RES is > 100 µM (inactive); with ACHN, > 100 µM (inactive); with MDA-MB-435, > 100 µM (inactive); in the assay with SR it was > 100 µM (inactive); with MDA-MB-231, 3.18 µM (inactive); in the assay on MDA-N, > 100 µM (inactive). In addition, the GI50 in the assay on HOP-62, in the assay with BT-549, in the assay with TK-10, with NCI-H460, in the assay with 786-0 and in the assay with MCF7 was > 100 µM (inactive) in each case. Also, the GI50 in the assay on A498, with RPMI-8226, in the assay on NCI-H226, with OVCAR-4 and in the assay with UACC-257 was > 100 µM (inactive) each time.
As to `C=C1CC(OC)(C(O)C(=O)N[C@H]2OCO[C@H]3C2O[C@H](C[C@@H](CO)OC)C(C)(C)C3OC)O[C@H](C)[C@@H]1C` (some centres undefined), the GI50 with NCI/ADR-RES, in the assay with HOP-62, with NCI-H460, in the assay with MCF7, with A498 and with RPMI-8226 was < 0.00931 µM (active) each time. Also, the GI50 in the assay on NCI-H226, in the assay with XF498, in the assay on OVCAR-4 and in the assay on UACC-257 was < 0.00931 µM (active) each time.
With `Cn1c(=O)nc2n(-c3ccc(Cl)cc3Cl)c3ccccc3nc-2c1=O`, the GI50 in the assay with SR was 19.2 µM (inactive); in the assay on HOP-62, 11.7 µM (inactive); in the assay with HCC 2998, 3.05 µM (inactive); with TK-10, 26.2 µM (inactive); with RPMI-8226 it was 15.4 µM (inactive); in the assay on XF498, 0.262 µM (active). For the same compound, the GI50 in the assay with OVCAR-4 is 3.51 µM (inactive).
Regarding `Nc1c(C(=O)Nc2ccc(C3=NCCN3)cc2)cccc1C(=O)Nc1ccc(C2=NCCN2)cc1`, the GI50 in the assay with NCI/ADR-RES is > 100 µM (inactive); in the assay on HCC 2998, > 71.6 µM (inactive); in the assay with NCI-H460, > 100 µM (inactive); with NCI-H522 it was > 65.2 µM (inactive); in the assay on MCF7, > 100 µM (inactive); in the assay on A498 it was > 100 µM (inactive). The GI50 with RPMI-8226, in the assay on NCI-H226, in the assay with XF498, with OVCAR-4 and in the assay on UACC-257 was > 100 µM (inactive) throughout.
